Assays:
human V1a receptor = target: T1, human V1a receptor (Homo sapiens, UniProt P37288); assay: Cellular in vitro assay for determining vasopressin receptor activity (V1a cell line, aequorin luminescence); assay type: cell-based; details: for IC50: CHO cell line transfected with the human V1a receptor, agonist [Arg8]-vasopressin at EC50 concentration, read-out: IC50 hV1a; for ratio IC50 hV2/hV1a: ratio of cellular IC50 values, human V2 over human V1a
T1 construct: expressed in transfected cells; host or cells: CHO K1 (Chinese hamster ovary), also stably transfected with modified aequorin
Procedure: (§1) B-1. Cellular In Vitro Assay for Determining Vasopressin Receptor Activity
(§2) The identification of agonists and antagonists of the V 1 a and V2 vasopressin receptors from humans, rats and dogs as well as the quantification of the activity of the compounds of the invention is carried out using recombinant cell lines. These cell lines originally derive from a hamster's ovary epithelial cell (Chinese Hamster Ovary, CHO K1, ATCC: American Type Culture Collection, Manassas, Va. 20108, USA). The test cell lines constitutively express the human, rat or dog
(§3) V1 a or V2 receptors. In case of the Gag-coupled V 1 a receptors, cells are also stably transfected with a modified form of the calcium-sensitive photoproteins aequorin (human and rat V1a) or obelin (dog V 1 a), which, after reconstitution with the cofactor coelenterazine, emit light when there are increases in free calcium concentrations [Rizzuto R, Simpson A W, Brini M, Pozzan T, Nature 358, 325-327 (1992); Illarionov B A, Bondar V S, Illarionova V A, Vysotski E S, Gene 153 (2), 273-274 (1995)]. The resulting vasopressin receptor cells react to stimulation of the recombinantly expressed V 1 a receptors by intracellular release of calcium ions, which can be quantified by the resulting photoprotein luminescence. The Gs-coupled V2 receptors are stably transfected into cell lines expressing the gene for firefly luciferase under control of a CRE-responsible promoter. Activation of V2 receptors induces the activation of the CRE-responsive promoter via cAMP increase, thereby inducing the expression of firefly luciferase. The light emitted by photoproteins of V1a cell lines as well as the light emitted by firefly luciferase of V2 cell lines corresponds to the activation or inhibition of the respective vasopressin receptor. The bioluminescence of the cell lines is detected using a suitable luminometer [Milligan G, Marshall F, Rees S, Trends in Pharmacological Sciences 17, 235-237 (1996)].
Vasopressin V1a Receptor Cell Lines:
On the day before the assay, the cells are plated out in culture medium (DMEM/F12, 2% FCS, 2 mM glutamine, 10 mM HEPES, 5 μg/ml coelenterazine) in 384-well microtiter plates and kept in a cell incubator (96% humidity, 5% v/v CO2, 37° C.). On the day of the assay, test compounds in various concentrations are placed for 10 minutes in the wells of the microtiter plate before the agonist [Arg^8]-vasopressin at EC50 concentration is added. The resulting light signal is measured immediately in a luminometer.
(§4) Table 1A below lists individual IC50 values for the compounds of the invention (including racemic mixtures as well as separated enantiomers) that were obtained from cell lines transfected with the human V1a or V2 receptor: […]

human V2 receptor = target: T2, human V2 receptor (Homo sapiens, UniProt P30518); assay: Cellular in vitro assay for determining vasopressin receptor activity (V2 cell line, CRE-luciferase); assay type: cell-based; details: CHO cell line transfected with the human V2 receptor; agonist [Arg8]-vasopressin at EC50 concentration; 3 hours incubation; read-out: IC50 hV2
T2 construct: expressed in transfected cells; host or cells: CHO K1 (Chinese hamster ovary) expressing firefly luciferase under a CRE-responsive promoter
Procedure: as §1, §2, §3
Vasopressin V2 Receptor Cell Lines:
On the day before the assay, the cells are plated out in culture medium (DMEM/F12, 2% FCS, 2 mM glutamine, 10 mM HEPES) in 384-well microtiter plates and kept in a cell incubator (96% humidity, 5% v/v CO2, 37° C.). On the day of the assay, test compounds in various concentrations and the agonist [Arg^8]-vasopressin at EC50 concentration are added together to the wells, and plates are incubated for 3 hours in a cell incubator. Upon addition of the cell lysis reagent Triton™ and the substrate luciferin, luminescence of firefly luciferase is measured in a luminometer.
as §4

T1 sequence (P37288 whole entry): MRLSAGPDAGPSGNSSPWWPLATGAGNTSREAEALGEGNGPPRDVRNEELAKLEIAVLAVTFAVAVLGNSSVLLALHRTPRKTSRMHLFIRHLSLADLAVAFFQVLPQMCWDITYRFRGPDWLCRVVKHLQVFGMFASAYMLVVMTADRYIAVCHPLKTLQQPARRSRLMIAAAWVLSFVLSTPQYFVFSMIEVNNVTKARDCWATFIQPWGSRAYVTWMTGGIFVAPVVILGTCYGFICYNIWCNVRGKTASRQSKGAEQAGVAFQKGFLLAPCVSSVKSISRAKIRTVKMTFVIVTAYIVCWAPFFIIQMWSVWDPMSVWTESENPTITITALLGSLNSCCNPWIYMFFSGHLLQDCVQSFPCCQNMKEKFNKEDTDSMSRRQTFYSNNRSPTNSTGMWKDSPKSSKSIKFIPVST
T2 sequence (P30518 whole entry): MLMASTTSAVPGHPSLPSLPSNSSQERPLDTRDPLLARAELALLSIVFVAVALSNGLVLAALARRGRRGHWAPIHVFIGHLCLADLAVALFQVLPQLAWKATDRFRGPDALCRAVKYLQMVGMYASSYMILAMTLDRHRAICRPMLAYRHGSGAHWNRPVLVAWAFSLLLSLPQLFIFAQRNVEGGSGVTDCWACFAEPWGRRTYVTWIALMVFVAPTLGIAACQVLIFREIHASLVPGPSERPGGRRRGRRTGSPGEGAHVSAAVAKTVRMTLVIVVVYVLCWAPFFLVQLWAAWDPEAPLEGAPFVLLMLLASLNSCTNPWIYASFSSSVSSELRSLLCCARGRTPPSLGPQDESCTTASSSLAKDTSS

In the case of `NC(=O)c1nc(Cn2nc(-c3ccc(Cl)cc3)n(C[C@H](O)C(F)(F)F)c2=O)nn1-c1c(F)cccc1F` [Example 25, 3-({3-(4-Chlorophenyl)-5-oxo-4-[(2S)-3,3,3-trifluoro-2-hydroxypropyl]-4,5-dihydro-1H-1,2,4-triazol-1-yl}methyl)-1-(2,6-difluorophenyl)-1H-1,2,4-triazole-5-carboxamide], the IC50 (human V1a receptor) is reported as 2.95 nM, the “ratio IC50 hV2/hV1a” value (human V1a receptor) is reported as 2.2 and the IC50 (human V2 receptor) is reported as 6.45 nM.
For `NC(=O)c1nc(Cn2nc(-c3ccc(Cl)cc3)n(C[C@H](O)C(F)(F)F)c2=O)nn1-c1ccc(F)cc1Cl` [Example 26, 1-(2-Chloro-4-fluorophenyl)-3-({3-(4-chlorophenyl)-5-oxo-4-[(2S)-3,3,3-trifluoro-2-hydroxypropyl]-4,5-dihydro-1H-1,2,4-triazol-1-yl}methyl)-1H-1,2,4-triazole-5-carboxamide], the IC50 (human V1a receptor) was 3.5 nM, the “ratio IC50 hV2/hV1a” value (human V1a receptor) was 4.9 and the IC50 (human V2 receptor) was 17 nM.
In the case of `NC(=O)c1nc(Cn2nc(-c3ccc(Cl)cc3)n(C[C@H](O)C(F)(F)F)c2=O)nn1-c1ccccc1OC(F)F` [Example 27, 3-({3-(4-Chlorophenyl)-5-oxo-4-[(2S)-3,3,3-trifluoro-2-hydroxypropyl]-4,5-dihydro-1H-1,2,4-triazol-1-yl}methyl)-1-[2-(difluoromethoxy)phenyl]-1H-1,2,4-triazole-5-carboxamide], the IC50 (human V1a receptor) is reported as 4.5 nM, the “ratio IC50 hV2/hV1a” value (human V1a receptor) is reported as 9.3 and the IC50 (human V2 receptor) is reported as 41.7 nM.
With `CC(C)c1ccccc1-n1nc(Cn2nc(-c3ccc(Cl)cc3)n(C[C@H](O)C(F)(F)F)c2=O)nc1C(N)=O` [Example 28, 3-({3-(4-Chlorophenyl)-5-oxo-4-[(2S)-3,3,3-trifluoro-2-hydroxypropyl]-4,5-dihydro-1H-1,2,4-triazol-1-yl}methyl)-1-(2-isopropylphenyl)-1H-1,2,4-triazole-5-carboxamide] the IC50 (human V1a receptor) was 4.85 nM, the “ratio IC50 hV2/hV1a” value (human V1a receptor) was 13.3 and the IC50 (human V2 receptor) was 64.5 nM.
In the case of `NC(=O)c1nc(Cn2nc(-c3ccc(Cl)cc3)n(C[C@H](O)C(F)(F)F)c2=O)nn1-c1ccccc1F` [Example 29, 3-({3-(4-Chlorophenyl)-5-oxo-4-[(2S)-3,3,3-trifluoro-2-hydroxypropyl]-4,5-dihydro-1H-1,2,4-triazol-1-yl}methyl)-1-(2-fluorophenyl)-1H-1,2,4-triazole-5-carboxamide], the IC50 (human V1a receptor) is reported as 13.3 nM, the “ratio IC50 hV2/hV1a” value (human V1a receptor) is reported as 1.8 and the IC50 (human V2 receptor) is reported as 24.1 nM.
For `NC(=O)c1nc(Cn2nc(-c3ccc(Cl)cc3)n(C[C@H](O)C(F)(F)F)c2=O)nn1-c1ccccc1` [Example 30, 3-({3-(4-Chlorophenyl)-5-oxo-4-[(2S)-3,3,3-trifluoro-2-hydroxypropyl]-4,5-dihydro-1H-1,2,4-triazol-1-yl}methyl)-1-phenyl-1H-1,2,4-triazole-5-carboxamide], the IC50 (human V1a receptor) was 14 nM, the “ratio IC50 hV2/hV1a” value (human V1a receptor) was 0.7 and the IC50 (human V2 receptor) was 9.75 nM.
In the case of `CCc1cccc(C)c1-n1nc(Cn2nc(-c3ccc(Cl)cc3)n(C[C@H](O)C(F)(F)F)c2=O)nc1C(N)=O` [Example 31, 3-({3-(4-Chlorophenyl)-5-oxo-4-[(2S)-3,3,3-trifluoro-2-hydroxypropyl]-4,5-dihydro-1H-1,2,4-triazol-1-yl}methyl)-1-(2-ethyl-6-methylphenyl)-1H-1,2,4-triazole-5-carboxamide], the IC50 (human V1a receptor) is reported as 14.5 nM, the “ratio IC50 hV2/hV1a” value (human V1a receptor) is reported as 0.5 and the IC50 (human V2 receptor) is reported as 7.95 nM.
`NC(=O)c1nc(Cn2nc(-c3ccc(Cl)cc3)n(C[C@H](O)C(F)(F)F)c2=O)nn1-c1cccc(F)c1` [Example 32, 3-({3-(4-Chlorophenyl)-5-oxo-4-[(2S)-3,3,3-trifluoro-2-hydroxypropyl]-4,5-dihydro-1H-1,2,4-triazol-1-yl}methyl)-1-(3-fluorophenyl)-1H-1,2,4-triazole-5-carboxamide] was tested, and the IC50 (human V1a receptor) was 18.3 nM, the “ratio IC50 hV2/hV1a” value (human V1a receptor) was 1.3 and the IC50 (human V2 receptor) was 23.9 nM.
In the case of `NC(=O)c1nc(Cn2nc(-c3ccc(Cl)cc3)n(C[C@H](O)C(F)(F)F)c2=O)nn1-c1cccc(Cl)c1` [Example 33, 1-(3-Chlorophenyl)-3-({3-(4-chlorophenyl)-5-oxo-4-[(2S)-3,3,3-trifluoro-2-hydroxypropyl]-4,5-dihydro-1H-1,2,4-triazol-1-yl}methyl)-1H-1,2,4-triazole-5-carboxamide], the IC50 (human V1a receptor) is reported as 24 nM, the “ratio IC50 hV2/hV1a” value (human V1a receptor) is reported as 0.2 and the IC50 (human V2 receptor) is reported as 4.55 nM.
For `COc1ccccc1-n1nc(Cn2nc(-c3ccc(Cl)cc3)n(C[C@H](O)C(F)(F)F)c2=O)nc1C(N)=O` [Example 34, 3-({3-(4-Chlorophenyl)-5-oxo-4-[(2S)-3,3,3-trifluoro-2-hydroxypropyl]-4,5-dihydro-1H-1,2,4-triazol-1-yl}methyl)-1-(2-methoxyphenyl)-1H-1,2,4-triazole-5-carboxamide], the IC50 (human V1a receptor) was 1.11 nM, the “ratio IC50 hV2/hV1a” value (human V1a receptor) was 6.9 and the IC50 (human V2 receptor) was 7.63 nM.
With `NC(=O)c1nc(Cn2nc(-c3ccc(Cl)cc3)n(C[C@H](O)C(F)(F)F)c2=O)nn1-c1ccccc1Cl` [Example 35, 1-(2-Chlorophenyl)-3-({3-(4-chlorophenyl)-5-oxo-4-[(2S)-3,3,3-trifluoro-2-hydroxypropyl]-4,5-dihydro-1H-1,2,4-triazol-1-yl}methyl)-1H-1,2,4-triazole-5-carboxamide] the IC50 (human V1a receptor) was 0.77 nM, the “ratio IC50 hV2/hV1a” value (human V1a receptor) was 11.1 and the IC50 (human V2 receptor) was 8.46 nM.
`NC(=O)c1nc(Cn2nc(-c3ccc(Cl)cc3)n(C[C@@H](O)C(F)(F)F)c2=O)nn1-c1ccccc1Cl` [Example 36, 1-(2-Chlorophenyl)-3-({3-(4-chlorophenyl)-5-oxo-4-[(2R)-3,3,3-trifluoro-2-hydroxypropyl]-4,5-dihydro-1H-1,2,4-triazol-1-yl}methyl)-1H-1,2,4-triazole-5-carboxamide] was tested, and the IC50 (human V1a receptor) was 3.8 nM, the “ratio IC50 hV2/hV1a” value (human V1a receptor) was 23.0 and the IC50 (human V2 receptor) was 87.5 nM.
`NC(=O)c1nc(Cn2nc(-c3ccc(Cl)cc3)n(CC(=O)C(F)(F)F)c2=O)nn1-c1ccccc1Cl` [Example 37, 1-(2-Chlorophenyl)-3-{[3-(4-chlorophenyl)-5-oxo-4-(3,3,3-trifluoro-2-oxopropyl)-4,5-dihydro-1H-1,2,4-triazol-1-yl]methyll-1H-1,2,4-triazole-5-carboxamide (ketone form) or 1-(2-Chlorophenyl)-3-{[3-(4-Chlorophenyl)-5-oxo-4-(3,3,3-trifluoro-2,2-dihydroxypropyl)-4,5-dihydro-1H-1,2,4-triazol-1-yl]methyl}-1H-1,2,4-triazole-5-carboxamide (hydrate form)] was tested, and the IC50 (human V1a receptor) was 1.37 nM, the “ratio IC50 hV2/hV1a” value (human V1a receptor) was 9.9 and the IC50 (human V2 receptor) was 13.5 nM.
